Source: patent publication US20100280987A1, “METHODS AND GENE EXPRESSION SIGNATURE FOR ASSESSING RAS PATHWAY ACTIVITY” (priority 2009, published 2010)
Entries after “also recorded” stand apart in the source; their conditions may differ.

Tests used:
[1] = tested on: p53 loss of function and KRas mutant lung tumors (7450 KP-model); test: tumor progression in 7450 KP-model mice; type: in vivo; settings: 7450 KP mice, after 4 weeks of treatment (data not shown)
RAS pathway signature = RAS pathway signature score in tumors after treatment in vivo; settings: 7450 KP-model mice, 150 mpk, three doses 10 hours apart, tumors 4 hours post last dose; 150 mg/kg
Method: As a first step in the analysis of the RAS signatures, we assessed the coherency of the signatures across four cell line panels from lung, colon, breast, and lymphoid malignancies. The purpose of coherence analysis is to show the statistical significance of the difference between the “Up” and “Down” arms of the signature in a new dataset. Two correlation coefficients were calculated for all of the genes in both the Up and Down arms. First, the correlation between each gene in the Up arm and the average of all genes in the Up arm is calculated. Second, the anticorrelation between each gene in the Up arm and the average of all genes in the Down arm is calculated. This is repeated for genes in the Down arm. […] A Fisher exact test is calculated for correlation within and between arms of the signature to assess the significance of signature coherence in a new dataset. […] RAS pathway activity (or regulation) is summarized into a RAS signature score, which is calculated as: (mean expression of Up genes (Table 2a))—(mean expression of Down genes (Table 2b)). […]
The 7450 KP mice were treated with a small molecule MEK inhibitor, AZD6244 (Ohren et al., 2004, Nat. Struct. Mol. Biol. 11:119201197). […] RAS signature pathway signatures scores were calculated as previously described for each time point and plotted (FIG. 18).

MEK1 and MEK2 = settings: purified enzyme, read-out: in vitro IC50 against purified enzyme; cited from earlier work
[2] = blood concentration of AZD6244 post-dose in mice; type: in vivo, CD-1 nude mice

clearance post-dose ([2]; CD-1 nude mice): cleared quickly
half-life in vivo ([2]; in vivo): short half-life
blood concentration after the peak ([2]; mice (CD-1 nude mice), blood): decreased rapidly
SMILES: Cn1cnc2c(F)c(Nc3ccc(Br)cc3Cl)c(C(=O)NOCCO)cc21 [AZD6244]
tumor progression compared vehicle [1]: significantly halted tumor progression
RAS pathway signature score in vivo at 4 hours post-dose (RAS pathway signature): down regulated; also recorded: down-regulated
IC50 (MEK1 and MEK2): 10 to 14 nM
